Data set [1] relates to human prostate cancer VCaP cell subcutaneous xenograft tumor. The experiment in a line: In vivo pharmacodynamic study, human prostate cancer VCaP cell subcutaneous xenograft tumor CB17 SCID mouse model. Conditions: for tumor growth inhibition rate (TGI): castrated CB17 SCID mice, 24th day after administration. On the procedure:
Experimental animal: male mice of CB17 SCID strain, aged 6-8 weeks, weighing 18-22 grams, supplier: Beijing Weitong Lihua Laboratory Animal Technology Co., Ltd. Shanghai Branch, animal certificate number: 20170011005577. Animals were reared in the experimental environment for 7 days after arrival and the experiment was started.
Experimental method: Human prostate cancer cell VCaP cells (ATCC-CRL-2876) were cultured in vitro in monolayer, and the culture conditions were DMEM medium with 20% fetal bovine serum, 100 U/mL penicillin and 100 μg/mL streptomycin, cultured in a 5% CO2 incubator at 37° C. Conventional digestion with trypsin-EDTA was performed twice a week for passage. When the cell saturation was 80%-90% and the number reached the requirement, the cells were collected, counted, and inoculated. 0.2 mL (10× 10^6 cells+Matrigel) VCaP cells were subcutaneously inoculated into the left upper limb of each mouse, and castration was performed 33 days after cell inoculation. When the average tumor volume reached 119 mm^3, the drugs were administered in groups, and the doses of compound 14 were set to four groups: 1 mg/kg, 3 mg/kg, 10 mg/kg and 30 mg/kg.
Daily observation of experimental animals: the health status and death of animals were monitored every day. Routine examinations included observing the effects of tumor growth and drug treatment on the daily behavior of animals, such as behavioral activities, food and water intake (visual observation only), and weight changes (body weight measured three times a week), physical signs or other abnormal conditions.
Tumor measurements and experimental indicators: Experimental indicators were to examine whether tumor growth was inhibited, delayed or cured. Tumor diameters were measured with vernier calipers three times a week.
The calculation formula of tumor volume is: V=0.5a×b2, where a and b represented the long diameter and short diameter of the tumor, respectively. The antitumor effect of the compound was evaluated by TGI (%) or relative tumor proliferation rate T/C (%). TGI (%), reflecting the tumor growth inhibition rate. Calculation of TGI (%): TGI (%)=[1−(average tumor volume at the end of administration of a certain treatment group−average tumor volume at the beginning of administration of the treatment group)/(average tumor volume at the end of treatment in the vehicle control group−average tumor volume at the beginning of treatment in the vehicle control group)]×100%. Relative tumor proliferation rate T/C (%): the calculation formula is as follows: T/C %=TRTV/CRTV×100% (TRTV: RTV in the treatment group; CRTV: RTV in the negative control group). The relative tumor volume (RTV) was calculated according to the results of tumor measurement, and the formula is RTV=Vt/V0, where V0 is the average tumor volume measured at the time of group administration (i.e. d0), and Vt is the average tumor volume at a certain measurement, and TRTV and CRTV were taken on the same day. After the experiment, the tumor weight would be detected, and the percentage of T/Cweight would be calculated. Tweight and Cweight represent the tumor weight of the administration group and the vehicle control group, respectively.
Statistical analysis: Statistical analysis included the mean and standard error (SEM) of tumor volume at each time point for each group. […] T-test was used for comparison between two groups, and one-way ANOVA was used for comparison between three or more groups. […]
A general note: In xenograft studies the graft and the host belong to different species.

Data set [2] is described as follows: In vivo pharmacokinetics in mice, intravenous injection and oral administration. The arrangement: species or system mouse. Conditions: male CD1 mice. On the procedure: In this experimental example, in vivo pharmacokinetics in mice were evaluated by intravenous injection and oral administration.
Experimental methods and conditions: Male CD1 mice, aged 6-8 weeks, all animals were free access to food and water, and were given a single dose of the compound to be tested at 1 mg/Kg by intravenous injection (solvent 5% DMSO/15% Solutol/80% Saline), at 5 min, 15 min, 30 min, 1 hr, 2 hr, 4 hr, 8 hr, 24 hr, 48 h after drug administration, or oral gavage administration of 10 mg/kg (solvent 5% DMSO/10% Solutol/85% Saline), at 15 min, 30 min, 1 hr, 2 hr, 4 hr, 6 h, 8 hr, 24 hr, 48 h after administration, blood was collected from the orbit, no less than 50 μL for each sample, heparin sodium was used for anticoagulation, and then placed on ice after collection, and centrifuged within 1 hour to separate the plasma for testing. The plasma concentration of the drug was detected by liquid tandem mass spectrometry (LC/MS/MS), and the pharmacokinetic parameters were calculated by Phoenix WinNonlin software.

The subject of a further data set is VCap cells. Put plainly: Inhibition of proliferation of VCap cells (Cell Titer Glo, 6 days). It is filed as cell-based. Conditions: Homo sapiens, VCaP, 144 h. The procedure: Tumor cell line VCap FGC (ATCC catalog number CRL-2876) was cultured in DMEM (Gibco catalog number 11965-092) medium containing 10% FBS (Gibco catalog number 10099-141C), respectively. During the determination, Vcap cells were replaced with DMEM medium containing 5% FBS and 0.1 nM R1881 (Sigma catalog number R0908).
Vcap FGC cells were inoculated in a 384-well plate (Perkin Elmer catalog number 6007460) at a cell density of 1200 cells/well in a volume of 20 μL/well and incubated overnight in a carbon dioxide incubator (Thermo). The prepared compound solutions of different concentrations were added in a volume of 5 μL/well. The corresponding vehicle control was set at the same time. After being cultured in the incubator for 6 days, the cell plate and the contents were equilibrated to room temperature, and 25 μL of Cell Titer Glor (Promega catalog number G7573) was added to each well, shake and mix well, incubated in dark for 10-30 minutes, and the signal values were detected though Envision microplate reader (PerkinElmer).
The percentage inhibition rate of compound-treated wells was calculated from vehicle control wells on the plate, and the percentage inhibition rate data corresponding to different concentrations were fitted by GraphPad prism, and the IC50 values were calculated by 4-parameter nonlinear logic formula.
(In general: Cellular ATP, detected with luciferase, serves as a proxy for viable cell number.)

[3] abbreviates: mouse, intravenous administration 1 mg/kg, plasma.
The mark [4] stands for this setting: mouse, oral administration 10 mg/kg, plasma.

Turning to `CC1(C)C(=O)N(c2ccc(C#N)c(Cl)c2)c2ccc(-c3ccc(N4CC(CN5CCN(c6ccc7c(c6)C(=O)N(C6CCC(=O)NC6=O)C7=O)CC5)C4)nc3F)cc21` (stereo not drawn) [Compound 14], in data set [1] (10 mpk and 30 mpk, CB17 SCID mice), the “tolerance (body weight, FIG. 2)” value is “better tolerance than Reference substance 1”. Besides, the “tumor growth inhibition rate (TGI)” value in data set [1] (dose 10 mpk) amounted to 96%. The “tumor growth inhibition rate (TGI)” value in data set [1] (dose 30 mpk) is listed as 96%. For the same compound, the F in data set [2] (oral administration 10 mg/kg vs intravenous 1 mg/kg) amounted to 68.6%. Further, in data set [2] (setting [3]), the AUC(0-inf) is 10400 ng·h/mL, the clearance came to 1.61 mL/min/kg and the half-life is 1220 min. Also, in data set [2] (setting [4]), the total exposure AUC(0-inf) was 71100 ng·h/mL, the concentration peaked (Cmax) at 2650 ng/mL and the half-life was 1070 min. In the data set with VCap cells, this compound came in with an Emax of 94% and an IC50 of 67 nM.

A word on the AUC(0-inf): it is total exposure, with the tail of the curve extrapolated. A lower AUC(0-inf) goes with low exposure. The half-life is the time needed for the level to fall by half in the phase considered. Lower therefore signals fast loss. Usually Cmax stands for the highest concentration seen after dosing. The IC50 is the point on the concentration scale where inhibition reaches its midpoint. A high value points to lower potency.

The values above are taken from US12441706B2, “Protein degradation agent compound preparation method and application” (SHANGHAI JEMINCARE PHARMACEUTICALS CO., LTD., priority 2019, dated 2025).
